Laboratory results published in the supplement of paper PMC11061612.

Experiments:
Assay in all cases: combination Emax (second highest fraction inhibited in the dose matrix, 72 h); higher = more inhibition; extreme values may be limits of the assay
[1] = system: A4-Fuk (B-Lymphoblastic Leukemia)
Summary of the method: (§1)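 Bliss excess equals the observed combination effect minus the expected value EA + EB − EA·EB, where EA and EB are the effects of each agent alone. Combination Emax is the second-highest inhibition within the matrix. Inhibition was scaled from CellTiter-Glo 2.0 luminescence, with 0 set by vehicle wells and 1 by blank wells, after 72 hours of two-drug dosing of cells plated in 1536-well plates.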

[2] = system: ALL-SIL (T-Lymphoblastic Leukemia)
Summary of the method: as §1

[3] = system: CADO-ES1 (Ewing's Sarcoma)
Summary of the method: as §1

[4] = system: COLO-668 (Small Cell Lung Carcinoma)
Summary of the method: as §1

[5] = system: DU-145 (Prostate Carcinoma)
Summary of the method: as §1

[6] = system: HCC1937 (Breast Carcinoma)
Summary of the method: as §1

[7] = system: HCC2998 (Colorectal Carcinoma)
Summary of the method: as §1

Hey (Ovarian Carcinoma) = system: Hey (Ovarian Carcinoma)
Summary of the method: as §1

[8] = system: LC-1-sq (Squamous Cell Lung Carcinoma)
Summary of the method: as §1

[9] = system: MDA-MB-453 (Breast Carcinoma)
Summary of the method: as §1

[10] = system: MOG-G-UVW (Low Grade Glioma)
Summary of the method: as §1

[11] = system: NCI-H1092 (Small Cell Lung Carcinoma)
Summary of the method: as §1

[12] = system: NCI-H1993 (Lung Adenocarcinoma)
Summary of the method: as §1

[13] = system: NCI-H2122 (Lung Adenocarcinoma)
Summary of the method: as §1

[14] = system: NCI-H522 (Lung Adenocarcinoma)
Summary of the method: as §1

[15] = system: OACM5-1 (Esophageal Adenocarcinoma)
Summary of the method: as §1

[16] = system: SK-LU-1 (Lung Adenocarcinoma)
Summary of the method: as §1

SK-N-AS (Neuroblastoma) = system: SK-N-AS (Neuroblastoma)
Summary of the method: as §1

[17] = system: SKN (Other Solid Carcinomas)
Summary of the method: as §1

[18] = system: SW872 (Other Solid Carcinomas)
Summary of the method: as §1

SMILES	combination Emax [1]	combination Emax [2]	combination Emax [3]	combination Emax [4]	combination Emax [5]	combination Emax [6]	combination Emax [7]	combination Emax (Hey (Ovarian Carcinoma))	combination Emax [8]	combination Emax [9]	combination Emax [10]	combination Emax [11]	combination Emax [12]	combination Emax [13]	combination Emax [14]	combination Emax [15]	combination Emax [16]	combination Emax (SK-N-AS (Neuroblastoma))	combination Emax [17]	combination Emax [18]
NC1(C(=O)N[C@@H](CCO)c2ccc(Cl)cc2)CCN(c2ncnc3[nH]ccc23)CC1 [Capivasertib] + C[C@@H]1COCCN1C2=NC(=NC(=C2)C3(CC3)[S@](=N)(=O)C)C4=C5C=CNC5=NC=C4 [AZD6738] (first compound max 10 µM, 7x7, partner max 10 µM)	0.942	0.932	0.729	0.677	0.398	0.518	0.814	0.777	0.74	0.706	0.796	0.387	0.742	0.974	0.251	0.774	0.511	0.738	0.608	0.452
CCN(CCO)CCCOc1ccc2c(Nc3cc(CC(=O)Nc4cccc(F)c4)[nH]n3)ncnc2c1 [AZD2811] + C[C@@H]1COCCN1C2=NC(=NC(=C2)C3(CC3)[S@](=N)(=O)C)C4=C5C=CNC5=NC=C4 [AZD6738] (first compound max 1 µM, 7x7, partner max 10 µM)	0.747	0.981	0.843	0.644	0.596	0.47	0.777	0.711	0.823	0.807	0.783	0.236	0.513	0.902	0.142	0.44	0.473	0.784	0.393	0.571
CCN(CCO)CCCOc1ccc2c(Nc3cc(CC(=O)Nc4cccc(F)c4)[nH]n3)ncnc2c1 [AZD2811] + O=C(c1cc(Cc2n[nH]c(=O)c3ccccc23)ccc1F)N1CCN(C(=O)C2CC2)CC1 [Olaparib] (first compound max 1 µM, 7x7, partner max 10 µM)	0.437	0.953	0.531	0.178	0.199	0.238	0.247	0.319	0.305	0.112	0.668	0.212	0.191	0.437	0.221	0.247	0.229	0.249	0.127	0.172
NC1(C(=O)N[C@@H](CCO)c2ccc(Cl)cc2)CCN(c2ncnc3[nH]ccc23)CC1 [Capivasertib] + Cn1cnc2c(F)c(Nc3ccc(Br)cc3Cl)c(C(=O)NOCCO)cc21 [Selumetinib] (first compound max 10 µM, 7x7, partner max 10 µM)	0.905	0.513	0.279	0.669	0.219	0.527	0.774	0.773	0.34	0.572	0.714	0.215	0.839	0.983	0.268	0.7	0.437	0.515	0.594	0.449
COc1nnc2ccc(N3CCC(c4ccc(OCCN5CCN(C)C(=O)[C@H]5C)cc4)CC3)nn12 [AZD5153] + CCN(CCO)CCCOc1ccc2c(Nc3cc(CC(=O)Nc4cccc(F)c4)[nH]n3)ncnc2c1 [AZD2811] (first compound max 1 µM, 7x7, partner max 1 µM)	0.893	1	0.248	0.264	0.265	0.383	0.752	0.618	0.609	0.677	0.802	0.374	0.479	0.853	0.344	0.734	0.404	0.447	0.608	0.578
NC1(C(=O)N[C@@H](CCO)c2ccc(Cl)cc2)CCN(c2ncnc3[nH]ccc23)CC1 [Capivasertib] + CC(C)n1c(=O)n(C)c2cnc3cc(F)c(-c4ccc(OCCCN5CCCCC5)nc4)cc3c21 [AZD1390] (first compound max 10 µM, 7x7, partner max 0.3 µM)	0.786	0.389	0.0981	0.401	0.249	0.426	0.398	0.225	0.253	0.56	0.576	0.2	0.595	0.57	0.192	0.71	0.195	0.157	0.516	0.342
NC1(C(=O)N[C@@H](CCO)c2ccc(Cl)cc2)CCN(c2ncnc3[nH]ccc23)CC1 [Capivasertib] + CCN(CCO)CCCOc1ccc2c(Nc3cc(CC(=O)Nc4cccc(F)c4)[nH]n3)ncnc2c1 [AZD2811] (first compound max 10 µM, 7x7, partner max 1 µM)	0.878	0.941	0.243	0.454	0.219	0.481	0.5	0.471	0.322	0.599	0.733	0.353	0.605	0.797	0.226	0.763	0.195	0.329	0.555	0.336
